Reference: ChEMBL document CHEMBL1201862, “PubChem BioAssay data set” (2004)
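Grown in 96-well plates, cells were treated for 48 hours with each compound at five concentrations. Insufficient inhibition: endpoint recorded as highest concentration tested. Abbreviation: GI50, concentration required for 50% inhibition of growth.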 Active and inactive are the calls of the source. Rule as the data show it: active = GI50 up to about 1.1 µM and inactive = higher.

Key:
Test in all cases: DTP human tumour cell line panel, 48 h
RPMI-8226 = system: RPMI-8226
OVCAR-4 = system: OVCAR-4
BT-549 = system: BT-549
MDA-MB-231 = system: MDA-MB-231
SN12C = system: SN12C
EKVX = system: EKVX
SK-MEL-5 = system: SK-MEL-5
NCI-H226 = system: NCI-H226
HOP-62 = system: HOP-62
SF-539 = system: SF-539
MCF7 = system: MCF7
A549 = system: A549
SW-620 = system: SW-620
CAKI-1 = system: CAKI-1
HT-29 = system: HT-29
COLO 205 = system: COLO 205
HL-60 = system: HL-60
T47D = system: T47D
Malme-3M = system: Malme-3M
Hs-578T = system: Hs-578T
SNB-75 = system: SNB-75
TK-10 = system: TK-10
UACC-257 = system: UACC-257
MOLT-4 = system: MOLT-4
CCRF-CEM = system: CCRF-CEM
DU-145 = system: DU-145
HOP-92 = system: HOP-92
SK-OV-3 = system: SK-OV-3
NCI/ADR-RES = system: NCI/ADR-RES
SK-MEL-28 = system: SK-MEL-28
HCC 2998 = system: HCC 2998
UACC-62 = system: UACC-62
M14 = system: M14
IGROV-1 = system: IGROV-1
KM12 = system: KM12
SR = system: SR
LOX IMVI = system: LOX IMVI
HCT-15 = system: HCT-15
NCI-H23 = system: NCI-H23
U-251 = system: U-251
K562 = system: K562
UO-31 = system: UO-31
MDA-N = system: MDA-N
OVCAR-8 = system: OVCAR-8
NCI-H460 = system: NCI-H460
SF-268 = system: SF-268
SNB-19 = system: SNB-19
HCT-116 = system: HCT-116
786-0 = system: 786-0
OVCAR-5 = system: OVCAR-5
SK-MEL-2 = system: SK-MEL-2
PC-3 = system: PC-3
RXF 393 = system: RXF 393
ACHN = system: ACHN
MDA-MB-435 = system: MDA-MB-435
NCI-H522 = system: NCI-H522
OVCAR-3 = system: OVCAR-3
SF-295 = system: SF-295

Structure (SMILES): C/C(=N\NC(=O)c1ccncc1)c1cccc(C(F)(F)F)c1
- GI50 (RPMI-8226): > 10 µM (inactive)
- GI50 (OVCAR-4): > 10 µM (inactive)
- GI50 (BT-549): > 10 µM (inactive)
- GI50 (MDA-MB-231): > 10 µM (inactive)
- GI50 (SN12C): > 10 µM (inactive)
- GI50 (EKVX): > 10 µM (inactive)
- GI50 (SK-MEL-5): > 10 µM (inactive)
- GI50 (NCI-H226): > 10 µM (inactive)
- GI50 (HOP-62): > 10 µM (inactive)
- GI50 (SF-539): > 10 µM (inactive)
- GI50 (MCF7): 6.9 µM (inactive)
- GI50 (A549): > 10 µM (inactive)
- GI50 (SW-620): > 10 µM (inactive)
- GI50 (CAKI-1): > 10 µM (inactive)
- GI50 (HT-29): > 10 µM (inactive)
- GI50 (COLO 205): > 10 µM (inactive)
- GI50 (HL-60): > 10 µM (inactive)
- GI50 (T47D): > 10 µM (inactive)
- GI50 (Malme-3M): > 10 µM (inactive)
- GI50 (Hs-578T): 1.75 µM (inactive)
- GI50 (SNB-75): > 10 µM (inactive)
- GI50 (TK-10): > 10 µM (inactive)
- GI50 (UACC-257): > 10 µM (inactive)
- GI50 (MOLT-4): > 10 µM (inactive)
- GI50 (CCRF-CEM): > 10 µM (inactive)
- GI50 (DU-145): > 10 µM (inactive)
- GI50 (HOP-92): > 10 µM (inactive)
- GI50 (SK-OV-3): > 10 µM (inactive)
- GI50 (NCI/ADR-RES): > 10 µM (inactive)
- GI50 (SK-MEL-28): > 10 µM (inactive)
- GI50 (HCC 2998): > 10 µM (inactive)
- GI50 (UACC-62): > 10 µM (inactive)
- GI50 (M14): > 10 µM (inactive)
- GI50 (IGROV-1): > 10 µM (inactive)
- GI50 (KM12): > 10 µM (inactive)
- GI50 (SR): > 10 µM (inactive)
- GI50 (LOX IMVI): > 10 µM (inactive)
- GI50 (HCT-15): > 10 µM
- GI50 (NCI-H23): > 10 µM (inactive)
- GI50 (U-251): > 10 µM (inactive)
- GI50 (K562): > 10 µM (inactive)
- GI50 (UO-31): > 10 µM (inactive)
- GI50 (MDA-N): > 10 µM (inactive)
- GI50 (OVCAR-8): > 10 µM (inactive)
- GI50 (NCI-H460): > 10 µM (inactive)
- GI50 (SF-268): > 10 µM (inactive)

Structure (SMILES): CC(C)CCC[C@@H](C)[C@H]1CCC2C3CC=C4C[C@@H](Oc5c6ccccc6nc6ccccc56)CCC4C3CCC21 (stereo partly drawn)
- GI50 (OVCAR-4): > 50 µM (inactive)
- GI50 (BT-549): > 50 µM (inactive)
- GI50 (MDA-MB-231): 39.9 µM (inactive)
- GI50 (SN12C): > 50 µM (inactive)
- GI50 (EKVX): > 50 µM (inactive)
- GI50 (SK-MEL-5): > 50 µM (inactive)
- GI50 (NCI-H226): > 50 µM (inactive)
- GI50 (SNB-19): > 50 µM (inactive)
- GI50 (HOP-62): > 50 µM (inactive)
- GI50 (SF-539): > 50 µM (inactive)
- GI50 (A549): > 50 µM (inactive)
- GI50 (SW-620): > 50 µM (inactive)
- GI50 (CAKI-1): > 50 µM (inactive)
- GI50 (HT-29): > 50 µM (inactive)
- GI50 (COLO 205): > 50 µM (inactive)
- GI50 (HCT-116): > 50 µM (inactive)
- GI50 (786-0): > 50 µM (inactive)
- GI50 (HL-60): > 50 µM (inactive)
- GI50 (T47D): > 50 µM (inactive)
- GI50 (Malme-3M): > 50 µM (inactive)
- GI50 (Hs-578T): > 50 µM (inactive)
- GI50 (OVCAR-5): > 50 µM (inactive)
- GI50 (TK-10): > 50 µM (inactive)
- GI50 (UACC-257): > 50 µM (inactive)
- GI50 (CCRF-CEM): > 50 µM (inactive)
- GI50 (SK-MEL-2): > 50 µM (inactive)
- GI50 (PC-3): > 50 µM (inactive)
- GI50 (DU-145): > 50 µM (inactive)
- GI50 (HOP-92): > 50 µM (inactive)
- GI50 (SK-OV-3): > 50 µM (inactive)
- GI50 (NCI/ADR-RES): > 50 µM (inactive)
- GI50 (RXF 393): > 50 µM (inactive)
- GI50 (SK-MEL-28): > 50 µM (inactive)
- GI50 (UACC-62): > 50 µM (inactive)
- GI50 (ACHN): > 50 µM (inactive)
- GI50 (M14): > 50 µM (inactive)
- GI50 (IGROV-1): > 50 µM (inactive)
- GI50 (KM12): > 50 µM (inactive)
- GI50 (MDA-MB-435): > 50 µM (inactive)
- GI50 (LOX IMVI): > 50 µM (inactive)
- GI50 (NCI-H522): 36.4 µM (inactive)
- GI50 (HCT-15): > 50 µM
- GI50 (NCI-H23): > 50 µM (inactive)
- GI50 (U-251): > 50 µM (inactive)
- GI50 (K562): > 50 µM (inactive)
- GI50 (UO-31): 25.6 µM (inactive)
- GI50 (MDA-N): > 50 µM (inactive)
- GI50 (OVCAR-3): > 50 µM (inactive)
- GI50 (OVCAR-8): > 50 µM (inactive)
- GI50 (NCI-H460): > 50 µM (inactive)
- GI50 (SF-268): > 50 µM (inactive)
- GI50 (SF-295): > 50 µM (inactive)
